In data set [1] the target is T1, Replicase polyprotein 1ab (Severe acute respiratory syndrome coronavirus 2, UniProt P0DTD1). The experiment in a line: Binding affinity to C-terminal His-tagged SARS-CoV-2 BetaCoV/Wuhan/WIV04/2019 Main protease expressed in Escherichia coli assessed as inhibition constant.
Data set [2] concerns SARS-CoV-2. It counts as functional, organism-based, Vero E6. The following applies: Severe acute respiratory syndrome coronavirus 2, USA-WA1/2020, Vero C1008, 72 h.
A short description of data set [3]: Selectivity index, ratio of EC50 for antiviral activity against SARS-CoV-2 to […]. It counts as toxicity.
Data set [4] has as its target T1, Replicase polyprotein 1ab. Nature of the data set: Binding affinity to SARS-CoV-2 Main protease assessed as inhibition constant.
In data set [5] the test system is SARS-CoV-2. Nature of the data set: Antiviral activity against SARS-CoV-2 USA-WA1/2020 infected in African green monkey Vero 76 cells assessed as reduction in virus induced cytopathic effect measured after 3 days by secondary viral yield reduction assay. It is filed as functional, organism-based. As to conditions: Severe acute respiratory syndrome coronavirus 2, USA-WA1/2020, Vero 76, 72 h.

The test system of data set [6] is SARS-CoV-2. It counts as functional, organism-based, Vero E6. As to conditions: Severe acute respiratory syndrome coronavirus 2, 2019-nCoV/USA_WA1/2020, Vero C1008, 72 h.
The target in data set [7] is T1, Replicase polyprotein 1ab. The experiment in a line: Inhibition of SARS-CoV-2 Main protease.
For data set [8], the target named is T1, Replicase polyprotein 1ab. Nature of the data set: Inhibition of recombinant SARS-CoV-2 Main protease expressed in Escherichia coli BL21 (DE3) cells using Mca-AVLQSGFR-K(Dnp)K as substrate preincubated for 15 mins followed by substrate addition by FRET assay.
In data set [9] the test system is SARS-CoV-2. It counts as functional, organism-based, Vero E6. As to conditions: Severe acute respiratory syndrome coronavirus 2, nCoV-2019BetaCoV/Wuhan/WIV04/2019, Vero C1008.
The target in data set [10] is T1, Replicase polyprotein 1ab. Nature of the data set: Inhibition of SARS-CoV-2 Main protease by FRET assay.
In data set [11] the test system is SARS-CoV-2. It counts as functional, organism-based. The following applies: Severe acute respiratory syndrome coronavirus 2, Caco-2, 72 h.
Data set [12] relates to SARS-CoV-2. It is filed as functional, organism-based. As to conditions: Severe acute respiratory syndrome coronavirus 2, A549, 96 h.
In a further data set the target is Procathepsin L (Homo sapiens, UniProt P07711). The experiment in a line: Inhibition of human Cathepsin L using Z-Phe-Arg-AMC as fluorogenic substrate incubated for 30 mins followed by substrate addition by fluorescence based analysis.
Chain of Procathepsin L (P07711 whole entry): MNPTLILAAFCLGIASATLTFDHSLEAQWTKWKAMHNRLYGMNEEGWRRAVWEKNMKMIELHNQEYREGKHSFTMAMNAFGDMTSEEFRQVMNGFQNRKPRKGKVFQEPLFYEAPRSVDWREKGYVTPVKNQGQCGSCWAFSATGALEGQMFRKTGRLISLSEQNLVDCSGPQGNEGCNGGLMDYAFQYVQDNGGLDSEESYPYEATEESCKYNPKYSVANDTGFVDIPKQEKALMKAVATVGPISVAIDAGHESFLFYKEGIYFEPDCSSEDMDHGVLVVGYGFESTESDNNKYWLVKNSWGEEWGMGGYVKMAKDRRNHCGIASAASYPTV
The subject of data set [13] is SARS-CoV-2. It counts as functional, organism-based. The following applies: Severe acute respiratory syndrome coronavirus 2, Caco-2.
The target of data set [14] is T1, Replicase polyprotein 1ab. The experiment in a line: Inhibition of SARS-CoV-2 Main protease using Dabcyl-KTSAVLQSGFRKME-Edans as substrate preincubated for 30 mins followed by substrate addition and measured after 4 hrs by fluorescence based assay.
Data set [15] concerns SARS-CoV-2. It is filed as functional, organism-based, Vero E6. The following applies: Severe acute respiratory syndrome coronavirus 2, WK-521, Vero C1008, 72 h.
Data set [16] relates to SARS-CoV-2. Nature of the data set: Antiviral activity against SARS-CoV-2 2019-nCoV/USA_WA1/2020 infected in human Huh-7 cells expressing ACE2 measured 24 hrs post infection. It counts as functional, organism-based. As to conditions: Severe acute respiratory syndrome coronavirus 2, 2019-nCoV/USA_WA1/2020, Huh-7, 24 h.
The target of data set [17] is T1, Replicase polyprotein 1ab. Nature of the data set: Inhibition of C-terminal His-tagged SARS-CoV-2 BetaCoV/Wuhan/WIV04/2019 Main protease expressed in Escherichia coli using Dabcyl-KTSAVLQ/SGFRKME(Edans) as substrate by FRET assay.
Data set [18] concerns SARS-CoV-2. Nature of the data set: microbe, parasite or virus in culture. The following applies: Severe acute respiratory syndrome coronavirus 2.

Consider 25 molecules from ChEMBL document CHEMBL5223130, “Targeting SARS-CoV-2 Main Protease for Treatment of COVID-19: Covalent Inhibitors Structure-Activity Relationship Insights and Evolution Perspectives” (J Med Chem, 2022).

Square brackets hold non-standard residues; d marks the D form. Peptide text beside a SMILES is read from it. Nle = CCCC[C@H](N)C(=O)O

`CC(C)C[C@H](NC(=O)OCc1ccccc1)C(=O)N[C@@H](C[C@@H]1CCNC1=O)C(=O)C(=O)NC1CC1`: in [1], the Ki was 36 nM. The same molecule came in with a half-maximal effective concentration (EC50) in the data set on SARS-CoV-2 [2] of 4610 nM. In data set [3], the Ratio was found to be 102.44. As for `C=CCn1ccc2c(C(=O)Oc3cncc(Cl)c3)cccc21`, in data set [3], the Ratio was 205.47. Consider `O=C(Oc1cncc(Cl)c1)c1cccc2c1CCN2`, for which the inhibition constant Ki in data set [4] amounted to 2150 nM. For the same molecule, the Ratio in data set [3] was determined as 46.87. Take `CCC[C@H](NC(=O)[C@H](CC(C)C)NC(=O)OCc1ccccc1)C(=O)C(=O)NCc1ccccn1`: the EC50 in the data set on SARS-CoV-2 [5] was found to be 780 nM. `CCOC(=O)/C=C/[C@H](C[C@@H]1CCNC1=O)NC(=O)[C@H](CC(C)C)NC(=O)[C@@H](NC(=O)OCc1ccccc1)[C@@H](C)OC(C)(C)C` came in with an EC50 in the data set with SARS-CoV-2 [6] of 2880 nM. Turning to `O=C(CCl)N1N=C(c2cc(Cl)ccc2F)C(c2ccccc2)C1c1ccc2nccnc2c1` (centres undefined), in data set [7], the half-inhibitory concentration (IC50) is 14 nM.

For `C=CC(=O)N(c1ccc(C(C)(C)C)cc1)[C@H](C(=O)NCCc1cccc(F)c1)c1cccnc1`, the inhibition constant (Ki) in data set [4] turned out to be 38400 nM. For the molecule `O=c1c2ccccc2[se]n1Cc1ccc(Cl)cc1`, the concentration for half-maximal inhibition (IC50) in [8] amounted to 824 nM. This molecule also yielded an EC50 in the data set with SARS-CoV-2 [9] of 1780 nM.

In [10], `CC(C)CCn1sc2ccc(Br)cc2c1=O` yielded an IC50 of 320 nM. In the case of `CC(C)C[C@H](NC(=O)[C@@H](NC(=O)OCc1ccccc1)[C@H](C)OC(C)(C)C)C(=O)N[C@H](C=O)C[C@@H]1CCNC1=O`, the results for the EC50 in the data set on SARS-CoV-2 [11] and with SARS-CoV-2 [12] were 2500 nM and 310 nM, respectively. This molecule returned an IC50 against Procathepsin L of 1.2 nM.

With `O=C[C@H](C[C@@H]1CCNC1=O)NC(=O)[C@@H]1[C@H]2CCC[C@H]2CN1C(=O)OCc1ccccc1`, the Ratio in data set [3] turned out to be 50.2. Take `COc1cncc(Cn2[se]c3ccccc3c2=O)c1`: the IC50 in [8] worked out at 467 nM. This molecule gave an EC50 in the data set with SARS-CoV-2 [9] of 3170 nM. The like results for `COc1cccc(Cn2[se]c3ccccc3c2=O)c1` were, in that order, 363 nM and 4500 nM. Turning to `C[C@H](NC[C@@H](c1cccnc1)N(C(=O)C(Br)(Br)Br)c1ccc(-c2ccccc2)cc1)c1ccccc1`, 80 nM corresponded to half-maximal inhibition in [7] (IC50). The EC50 in the data set with SARS-CoV-2 [13] was 2150 nM. In addition, the Ratio in data set [3] was 26.87. The like results for `C[C@H](NC[C@@H](c1cccnc1)N(C(=O)C(Cl)Cl)c1ccc(-c2ccccc2)cc1)c1ccccc1` were, in that order, 430 nM, 2050 nM and 4.76. In [14], `COc1ccc(-c2sc3n(c(NC(C)(C)C)c4[n+]3[C@H]3CC(=O)C=C[C@H]3OC4)c2-c2ccc(OC)cc2)cc1` came in with an IC50 of 20700 nM.

As for `CC(C)C[C@H](NC(=O)OCc1ccccc1)C(=O)N[C@@H](CC(C)C)C(=O)N[C@@H](C[C@@H]1CCNC1=O)C(=O)C(=O)NC1CC1`, the inhibitory constant (Ki) in [1] came out at 13 nM. The molecule also had a half-maximal effective concentration (EC50) with SARS-CoV-2 [2] of 11100 nM.

Take `O=C(N[C@@H](Cc1ccccc1)C(=O)N[C@@H](C[C@@H]1CCNC1=O)C(O)S(=O)(=O)[O-])OCc1ccccc1.[Na+]` (some centres undefined): in data set [3], the Ratio was determined as 45.78. Take `Cc1cccc(C(=O)Oc2c(C)cccc2C(=O)Oc2cncc(Cl)c2)c1O`: in the data set with SARS-CoV-2 [15], the EC50 came out at 24000 nM.

`O=C(c1cccc(Cn2[se]c3ccccc3c2=O)c1)N1CCOCC1`: the IC50 in data set [8] was 345 nM. In the data set on SARS-CoV-2 [9], this molecule displayed an EC50 of 3740 nM. In the data set on SARS-CoV-2 [16], `CC(C)C[C@H](NC(=O)OCc1cccc(C(F)(F)F)c1)C(=O)N[C@@H](C[C@@H]1CCNC1=O)C(O)S(=O)(=O)O` (some centres undefined) registered an EC50 of 6 nM. For the molecule `CSCC[C@@H](C=O)NC(=O)[C@H](CC(C)C)NC(=O)[C@H](CC(C)C)NC(C)=O` (Ac-Leu-Leu-Met-aldehyde), the EC50 with SARS-CoV-2 [5] is 3700 nM.

Regarding `CCCC[C@@H](C=O)NC(=O)[C@H](CC(C)C)NC(=O)[C@H](CC(C)C)NC(C)=O` (Ac-Leu-Leu-[Nle]-aldehyde), the midpoint of inhibition in data set [17], the IC50, lay at 970 nM. With `CC(C)(C)NC(=O)N[C@H](C(=O)N1C[C@H]2[C@@H]([C@H]1C(=O)NC(CC1CCC1)C(=O)C(N)=O)C2(C)C)C(C)(C)C` (some centres undefined) [BOCEPREVIR], the midpoint of the response with SARS-CoV-2 [18], the EC50, lay at 1900 nM. In data set [7], `O=C1C=CC(=O)c2c(O)ccc(O)c21` [NAPHTHAZALIN] showed an IC50 of 490 nM.

The Ki is a dissociation constant, usually derived from enzyme kinetics or from competition with a known ligand. As usually defined, the EC50 is the midpoint of the concentration-response curve. The IC50 is the concentration needed to halve the response being measured.
